Results: patent EP0427405A1 (priority 1989, dated 1991)

Key:
[1] = system: Phaffia rhodozyma ENZA-M10; type: cell-based
[2] = system: Phaffia rhodozyma ENZA-A169; type: cell-based

## CSC [DMS, dimethylsulphide]
[1]
  kill curve, shape: definite "bump"
[2]
  kill curve, kinetics of death: follows 1st order kinetics
  kill curve, speed of killing: killed much more quickly than E1
